Source: ChEMBL document CHEMBL5584208, “Conformationally constrained potent inhibitors for enhancer of zeste homolog 2 (EZH2)” (Bioorg Med Chem Lett, 2024)
Blank lines part the entries; values can stand above or below the molecule they belong to.

Key:
[1] = Oral bioavailability in mouse at 10 mg/kg; assay type: ADME, organism-based; conditions: in vivo
[2] = system: Pfeiffer; test: Antiproliferative activity against human Pfeiffer cells harboring EZH2 A677G mutant; assay type: functional, cell-based
[3] = Half life in mouse at 10 mg/kg, po; assay type: ADME, organism-based; conditions: in vivo
[4] = AUC (0 to t) in mouse at 10 mg/kg, po; assay type: ADME, organism-based; conditions: in vivo
[5] = system: WSUDLCL2; test: Antiproliferative activity against human WSUDLCL2 cells harboring EZH2 Y641F mutant; assay type: functional, cell-based
[6] = system: KARPAS-422; test: Antiproliferative activity against human KARPAS-422 cells harboring EZH2 Y641N mutant; assay type: functional, cell-based
[7] = Cmax in mouse at 10 mg/kg, po; assay type: ADME, organism-based; conditions: in vivo
[8] = Cmax in mouse at 2 mg/kg, iv; assay type: ADME, organism-based; conditions: in vivo
[9] = AUC (0 to infinity) in mouse at 2 mg/kg, iv; assay type: ADME, organism-based; conditions: in vivo
[10] = Volume of distribution at steady state in mouse at 2 mg/kg, iv; assay type: ADME, organism-based; conditions: in vivo, read-out: Vdss
[11] = AUC (0 to t) in mouse at 2 mg/kg, iv; assay type: ADME, organism-based; conditions: in vivo
[12] = Clearance in mouse at 2 mg/kg, iv; assay type: ADME, organism-based; conditions: in vivo
[13] = AUC (0 to infinity) in mouse at 10 mg/kg, po; assay type: ADME, organism-based; conditions: in vivo
[14] = Half life in mouse at 2 mg/kg, iv; assay type: ADME, organism-based; conditions: in vivo
[15] = Drug concentration in human KARPAS-422 cells harboring EZH2 Y641N mutant xenografted in mouse at 100 mg/kg, po measured after 4 hrs; assay type: ADME, organism-based; conditions: KARPAS-422 xenograft tumour, read-out: Ct
[16] = Metabolic stability in dog liver microsomes assessed as half life; assay type: ADME, Canis lupus familiaris, Microsome
[17] = Metabolic stability in monkey liver microsomes assessed as intrinsic clearance in liver; assay type: ADME, Macaca mulatta, Microsome; conditions: rhesus monkey, read-out: CLH
[18] = Drug concentration in human KARPAS-422 cells harboring EZH2 Y641N mutant xenografted in mouse at 100 mg/kg, po measured after 8 hrs; assay type: ADME, organism-based; conditions: KARPAS-422 xenograft tumour, read-out: Ct
[19] = Metabolic stability in mouse liver microsomes assessed as intrinsic clearance in hepatocytes measured per million cells; assay type: ADME, Microsome
[20] = system: Pfeiffer; test: Antitumor activity against human Pfeiffer cells harboring EZH2 A677G mutant xenografted in mouse assessed as reduction in tumor volume at 25 to 100 mg/kg, po qd for 28 days; assay type: functional; design: scale not given: the % may be the effect or the level left; conditions: dose 25-100 mg/kg, time 28 day
[21] = system: KARPAS-422; test: Antitumor activity against human KARPAS-422 cells harboring EZH2 Y641N mutant xenografted in mouse at 50 mg/kg, po bid for 28 days relative to control; assay type: functional; conditions: KARPAS-422, 672 h, time 28 day, read-out: TGI
[22] = Toxicity in mouse xenografted with human Pfeiffer cells harboring EZH2 A677G mutant assessed as body weight loss at 25 to 100 mg/kg, po qd for 28 days; assay type: organism-based; conditions: in vivo, 672 h, dose 25-100 mg/kg, time 28 day
[23] = system: Pfeiffer; test: Antitumor activity against human Pfeiffer cells harboring EZH2 A677G mutant xenografted in mouse at 50 mg/kg, po qd for 28 days relative to control; assay type: functional; conditions: 672 h, time 28 day, read-out: TGI
[24] = Metabolic stability in dog liver microsomes assessed as intrinsic clearance in liver; assay type: ADME, Canis lupus familiaris, Microsome; conditions: read-out: CLH
[25] = Metabolic stability in rat liver microsomes assessed as intrinsic clearance in hepatocytes measured per million cells; assay type: ADME, Microsome
[26] = system: Pfeiffer; test: Antitumor activity against human Pfeiffer cells harboring EZH2 A677G mutant xenografted in mouse at 100 mg/kg, po qd for 28 days relative to control; assay type: functional; conditions: 672 h, time 28 day, read-out: TGI
[27] = Metabolic stability in mouse liver microsomes assessed as intrinsic clearance in liver; assay type: ADME, Microsome; conditions: read-out: CLH
[28] = Toxicity in mouse xenografted with human KARPAS-422 cells harboring EZH2 Y641N mutant assessed as body weight loss at 50 to 200 mg/kg, po bid for 28 days; assay type: organism-based; conditions: in vivo, 672 h, dose 50-200 mg/kg, time 28 day
[29] = Metabolic stability in human liver microsomes assessed as intrinsic clearance in liver; assay type: ADME, Microsome; conditions: read-out: CLH
[30] = Metabolic stability in mouse liver microsomes assessed as half life; assay type: ADME, Microsome
[31] = Metabolic stability in human liver microsomes assessed as half life; assay type: ADME, Microsome
[32] = system: KARPAS-422; test: Antitumor activity against human KARPAS-422 cells harboring EZH2 Y641N mutant xenografted in mouse at 100 mg/kg, po bid for 28 days relative to control; assay type: functional; conditions: KARPAS-422, 672 h, time 28 day, read-out: TGI
[33] = Metabolic stability in rat liver microsomes assessed as half life; assay type: ADME, Microsome
[34] = Metabolic stability in monkey liver microsomes assessed as intrinsic clearance in hepatocytes measured per million cells; assay type: ADME, Macaca mulatta, Microsome; conditions: rhesus monkey
[35] = Metabolic stability in rat liver microsomes assessed as intrinsic clearance in liver; assay type: ADME, Microsome; conditions: read-out: CLH
[36] = system: KARPAS-422; test: Antitumor activity against human KARPAS-422 cells harboring EZH2 Y641N mutant xenografted in mouse at 200 mg/kg, po bid for 28 days relative to control; assay type: functional; conditions: KARPAS-422, 672 h, time 28 day, read-out: TGI
[37] = system: KARPAS-422; test: Antitumor activity against human KARPAS-422 cells harboring EZH2 Y641N mutant xenografted in mouse assessed as reduction tumor volume at 50 to 200 mg/kg, po bid for 28 days relative to control; assay type: functional; design: scale not given: the % may be the effect or the level left; conditions: dose 50-200 mg/kg, time 28 day
[38] = Metabolic stability in dog liver microsomes assessed as intrinsic clearance in hepatocytes measured per million cells; assay type: ADME, Canis lupus familiaris, Microsome
[39] = Metabolic stability in human liver microsomes assessed as intrinsic clearance in hepatocytes measured per million cells; assay type: ADME, Microsome
[40] = Metabolic stability in monkey liver microsomes assessed as half life; assay type: ADME, Macaca mulatta, Microsome; conditions: rhesus monkey
[41] = system: Pfeiffer; test: Antitumor activity against human Pfeiffer cells harboring EZH2 A677G mutant xenografted in mouse at 25 mg/kg, po qd for 28 days relative to control; assay type: functional; conditions: 672 h, time 28 day, read-out: TGI

bioavailability [1]: 11.9%
half-life [3]: 10.8 min
AUC(0-t) [4]: 566 ng·h/mL
IC50 [6]: 1.9 nM
Cmax [7]: 1280 ng/mL
Cmax [8]: 2790 ng/mL
AUC(0-inf) [9]: 955 ng·h/mL
Vd [10]: 0.565 L/kg
AUC(0-t) [11]: 949 ng·h/mL
clearance [12]: 34.6 mL/min/kg
AUC(0-inf) [13]: 570 ng·h/mL
half-life [14]: 10.8 min
Compound: CCN(c1cc(-c2ccc3c(c2)N(C)CC32CCOCC2)cc(C(=O)NCc2c(C)cc(C)[nH]c2=O)c1C)C1CCOCC1
IC50 [2]: 1.01 nM
IC50 [5]: 1.9 nM

bioavailability [1]: 33%
half-life [3]: 27.6 min
AUC(0-t) [4]: 1350 ng·h/mL
IC50 [6]: 1.79 nM
Cmax [7]: 1750 ng/mL
Cmax [8]: 2580 ng/mL
AUC(0-inf) [9]: 831 ng·h/mL
Vd [10]: 0.803 L/kg
AUC(0-t) [11]: 818 ng·h/mL
clearance [12]: 43 mL/min/kg
AUC(0-inf) [13]: 1360 ng·h/mL
half-life [14]: 19.2 min
Compound: CCN1C(=O)C2(CCOCC2)c2ccc(-c3cc(C(=O)NCc4c(C)cc(C)[nH]c4=O)c(C)c(N(CC)C4CCOCC4)c3)cc21
IC50 [2]: 0.49 nM
IC50 [5]: 2.38 nM

bioavailability [1]: 36.9%
half-life [3]: 40.2 min
AUC(0-t) [4]: 2960 ng·h/mL
concentration at 4 h [15]: 8580 ng/mL
half-life [16]: 34.5 min
CLint scaled [17]: 272 mL/min/kg
concentration at 8 h [18]: 9520 ng/mL
IC50 [6]: 1.82 nM
CLH [19]: 79.3 µL/min
Cmax [7]: 1700 ng/mL
CLint scaled [24]: 276 mL/min/kg
CLH [25]: 99.9 µL/min
CLint scaled [27]: 942 mL/min/kg
CLint scaled [29]: 48 mL/min/kg
half-life [30]: 17.5 min
half-life [31]: 80.3 min
Cmax [8]: 2400 ng/mL
AUC(0-inf) [9]: 1610 ng·h/mL
Vd [10]: 0.65 L/kg
AUC(0-t) [11]: 1610 ng·h/mL
clearance [12]: 20.7 mL/min/kg
half-life [33]: 13.9 min
AUC(0-inf) [13]: 2970 ng·h/mL
CLH [34]: 75.6 µL/min
CLint scaled [35]: 468 mL/min/kg
half-life [14]: 25.2 min
CLH [38]: 40.2 µL/min
CLH [39]: 17.3 µL/min
half-life [40]: 18.3 min
Compound: CCN(c1cc(-c2ccc3c(c2)CCC3N2CCOCC2)cc(C(=O)NCc2c(C)cc(C)[nH]c2=O)c1C)C1CCOCC1 (centres undefined)
IC50 [2]: 1.73 nM
IC50 [5]: 2.36 nM
Activity [20]: 53.1%
inhibition in vivo at 50 mg/kg [21]: 16%
Activity [22]: Non-Toxic
inhibition in vivo at 50 mg/kg [23]: 68.9%
inhibition in vivo at 100 mg/kg [26]: 100%
Activity [28]: Non-Toxic
inhibition in vivo at 100 mg/kg [32]: 52.5%
inhibition in vivo at 200 mg/kg [36]: 98%
Activity [37]: 16%
inhibition in vivo at 25 mg/kg [41]: 53.1%
